Broadly, the pKi is the negative decadic logarithm of the Ki, by convention in mol/L. Read a high pKi as a low Ki.

For ten molecules, Ki results are on record in patent US7407966B2, “Thienopyridinone compounds and methods of treatment” (Epix Delaware, Inc., priority 2004, dated 2008).

The structures appear in SMILES notation. pKi: −log10 of the molar value.

The target in the experiment is 5-HT4e receptor (Homo sapiens, UniProt Q13639). In words: 5-HT4e receptor binding affinity assay. The conditions noted are these: binding affinity to 5-HT4e receptors. On the procedure: Compounds of the invention synthesized above and their binding affinity to 5-HT4e receptors was determined.
Sequence of 5-HT4e receptor (Q13639 1-378 isoform Q13639-5): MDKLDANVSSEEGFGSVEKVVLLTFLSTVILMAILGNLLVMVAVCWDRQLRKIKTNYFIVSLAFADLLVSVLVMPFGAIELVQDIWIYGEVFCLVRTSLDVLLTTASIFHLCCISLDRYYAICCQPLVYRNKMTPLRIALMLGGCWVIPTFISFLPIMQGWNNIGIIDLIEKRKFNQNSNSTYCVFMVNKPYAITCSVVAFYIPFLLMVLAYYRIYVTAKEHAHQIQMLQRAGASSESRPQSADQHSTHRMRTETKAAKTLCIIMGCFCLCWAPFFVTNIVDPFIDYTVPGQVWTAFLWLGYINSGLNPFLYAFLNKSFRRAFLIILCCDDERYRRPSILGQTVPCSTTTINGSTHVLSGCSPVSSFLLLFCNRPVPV
For `CCN1CCC(NC(=O)c2c(O)c3ccsc3n(C(C)C)c2=O)CC1` [Example 1, 6,7-Dihydro-N-(1-ethylpiperidin-4-yl)-4-hydroxy-7-isopropyl-6-oxothieno[2,3-b]pyridine-5-carboxamide], the pKi is 7.09. In the case of `CCCN1CCC(NC(=O)c2c(O)c3ccsc3n(C(C)C)c2=O)CC1` [Example 2, 6,7-Dihydro-4-hydroxy-7-isopropyl-6-oxo-N-(1-propylpiperidin-4-yl)thieno[2,3-b]pyridine-5-carboxamide] it was 7.48; in that of `CCCCN1CCC(NC(=O)c2c(O)c3ccsc3n(C(C)C)c2=O)CC1` [Example 3, N-(1-Butylpiperidin-4-yl)-6,7-dihydro-4-hydroxy-7-isopropyl-6-oxothieno[2,3-b]pyridine-5-carboxamide], 7.33; in that of `CC(C)n1c(=O)c(C(=O)NC2CCN(CCCO)CC2)c(O)c2ccsc21` [Example 4, 6,7-Dihydro-4-hydroxy-N-(1-(3-hydroxypropyl)piperidin-4-yl)-7-isopropyl-6-oxothieno[2,3-b]pyridine-5-carboxamide], 7.51. On to `CC(C)n1c(=O)c(C(=O)NC2CCN(CC3CC3)CC2)c(O)c2ccsc21` [Example 5, N-(1-(Cyclopropylmethyl)piperidin-4-yl)-6,7-dihydro-4-hydroxy-7-isopropyl-6-oxothieno[2,3-b]pyridine-5-carboxamide], for which the pKi is 7.21. As to `CC(C)CN1CCC(NC(=O)c2c(O)c3ccsc3n(C(C)C)c2=O)CC1` [Example 6, 6,7-Dihydro-4-hydroxy-N-(1-isobutylpiperidin-4-yl)-7-isopropyl-6-oxothieno[2,3-b]pyridine-5-carboxamide], the pKi is 6.66.

In turn, `CC(C)n1c(=O)c(C(=O)NC2CCN(CCc3ccccc3)CC2)c(O)c2ccsc21` [Example 7, 6,7-Dihydro-4-hydroxy-7-isopropyl-6-oxo-N-(1-phenethylpiperidin-4-yl)thieno[2,3-b]pyridine-5-carboxamide] had a pKi of 7.00. Take `CCCCCN1CCC(NC(=O)c2c(O)c3ccsc3n(C(C)C)c2=O)CC1` [Example 8, 6,7-Dihydro-4-hydroxy-7-isopropyl-6-oxo-N-(1-pentylpiperidin-4-yl)thieno[2,3-b]pyridine-5-carboxamide]: the pKi is 7.33. In the case of `CCCN1CCC(NC(=O)c2c(O)c3ccsc3n(CC)c2=O)CC1` [Example 9, 6,7-Dihydro-7-ethyl-4-hydroxy-6-oxo-N-(1-propylpiperidin-4-yl)thieno[2,3-b]pyridine-5-carboxamide], the pKi is 7.51. Take `CCn1c(=O)c(C(=O)NC2CCN(CCCO)CC2)c(O)c2ccsc21` [Example 10, 6,7-Dihydro-7-ethyl-4-hydroxy-N-(1-(3-hydroxypropyl)piperidin-4-yl)-6-oxothieno[2,3-b]pyridine-5-carboxamide]: the pKi is 7.00.
